Measurements published in paper PMC8618034, “In Silico Structure-Guided Optimization and Molecular Simulation Studies of 3-Phenoxy-4-(3-trifluoromethylphenyl)pyridazines as Potent Phytoene Desaturase Inhibitors” (Molecules, 2021).
Read-outs that look alike come from different tables or passages of the source.

Target: T1, Synechococcus PDS (phytoene desaturase) (Synechococcus elongatus, UniProt P26294)
T1 construct: recombinant, pET15b-Synechococcus PDS
Assay: SPR (Biacore 8K, protein immobilized on CM5 chip)
Type: binding

T1 sequence (P26294 whole entry): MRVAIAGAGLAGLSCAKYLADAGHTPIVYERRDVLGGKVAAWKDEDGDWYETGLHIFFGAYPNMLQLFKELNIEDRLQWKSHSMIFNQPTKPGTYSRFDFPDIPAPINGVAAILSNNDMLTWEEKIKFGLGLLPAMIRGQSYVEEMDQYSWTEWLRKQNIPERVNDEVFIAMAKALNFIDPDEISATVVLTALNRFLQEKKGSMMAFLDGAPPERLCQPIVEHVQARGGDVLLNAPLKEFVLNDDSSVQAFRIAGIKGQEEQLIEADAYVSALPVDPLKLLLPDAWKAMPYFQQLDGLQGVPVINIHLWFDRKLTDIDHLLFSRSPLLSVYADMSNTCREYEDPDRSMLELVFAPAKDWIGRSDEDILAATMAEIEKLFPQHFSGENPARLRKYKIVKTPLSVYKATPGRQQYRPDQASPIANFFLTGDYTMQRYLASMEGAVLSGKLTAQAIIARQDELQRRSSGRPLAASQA

Row | Kd (read-out: Kd) [µM] | SMILES | Kd [µM]
1 | 43.5 | Cc1cc(-c2cccc(C(F)(F)F)c2)c(Oc2ccc(C#N)cc2)nn1 [compound 1] | –
2 | – | O=C(Nc1ccc(F)cc1F)c1cccnc1Oc1cccc(C(F)(F)F)c1 [diflufenican] | 70.8
3 | 7.08 | Cc1cc(-c2cccc(C(F)(F)F)c2)c(Oc2ccc(C(F)(F)F)cc2)nn1 [2a, 6-methyl-3-(4-(trifluoromethyl)phenoxy)-4-(3(trifluoromethyl)phenyl)pyridazine] | –
4 | 63.2 | CCc1cc(-c2cccc(C(F)(F)F)c2)c(Oc2cc(F)c(F)c(F)c2)nn1 [3h, 6-ethyl-4-(3-(trifluoromethyl)phenyl)-3-(3,4,5-trifluorophenoxy)pyridazine] | –
